Values after ≈ are worked out from the molar mass of the structure shown. Counter-ions that a name gives are not always drawn. Like-named read-outs stand apart in the source and are kept apart here.
Legend:
Corynebact. acnes Leo FN = test: In vitro activity, concentration required for 50% inhibition (Table A); format: cell-based, Corynebacterium acnes; conditions: for IC50: Cutibacterium acnes
[1] = tested on: Streptococcus pyogenes Leo EC; test: as above; format: cell-based
[2] = tested on: Staph. aureus, Leo CC178H2 (fusidic acid resistant strain); test: as above; format: cell-based; conditions: Staphylococcus aureus, read-out: Concentration required for 50% inhibition (IC50)
[3] = tested on: Staphylococcus aureus Leo CC178B; test: as above; format: cell-based; conditions: for IC50: LEOCC178B, read-out: Concentration required for 50% inhibition (IC50)
[4] = tested on: Bacteroides fragilis, Leo JA2; test: as above; format: cell-based
Staph. aureus Leo CJ145 = test: as above; format: cell-based; conditions: for IC50: Staphylococcus aureus
[5] = tested on: Streptococcus sp. Leo EG2; test: as above; format: cell-based
[6] = tested on: fusidic acid resistant variant of Staph. aureus (Leo CC 178A); test: In vitro activity before and after a number of transfers (Example 48, Table C); format: cell-based; conditions: for IC50: Staphylococcus aureus
Method: (§1) In vitro activity of 3α,11α-dihydroxy-16β-ethylthiofusida-13(17),24-dien-21-oic acid against Staph. aureus before and after a number of transfers.
(§2) Serial dilutions of the compound above were made in liquid NIH-medium and then heavily inoculated with either a fusidic acid sensitive strain of Staph. aureus (Leo CC 178B) or with a fusidic acid resistant variant of the same strain (Leo CC 178A).
(§3) After every 72 to 96 hours transfers were made from the tubes containing the largest amount of the test compound showing full growth.

[7] = tested on: fusidic acid sensitive strain of Staph. aureus (Leo CC 178B); test: as above; format: cell-based; conditions: for IC50: Staphylococcus aureus, Leo CC 178B (fusidic acid sensitive), overnight incubation
Method: as §1, §2, §3

Staphylococcus aureus = test: In vitro effect of combination with dihydro-fusidic acid, viable counts (Example 46); format: cell-based; conditions: tubes a, b 10 μg/ml, tube c 5 + 5 μg/ml
Method: In vitro-effect of the combination of dihydro-fusidic acid and 3α,11α-dihydroxy-16β-phenylthio-fusida-13(17),24-dien-21- oic acid
To three tubes containing NIH broth was added:
a. The sodium salt of dihydro-fusidic acid (10 μg/ml).
b. The sodium salt of 3α,11α-dihydroxy-16-phenylthiofusida-13(17),24-dien-21-oic acid (10 μg/ml).
c. A mixture of the sodium salts of dihydro-fusidic acid (5 μg/ml) and 3α,11α-dihydroxy-16-phenylthiofusida-13(17),24-dien-21-oic acid (5 μg/ml).
The tubes were inoculated with Staphylococcus aureus to give 5.2 × 10^5 organisms per ml, incubated at 37° C for 96 hours, and the viable counts were determined.
A fourth tube was treated similarly without addition of any of the antibiotics and used as a control: […]

[8] = Corynebact. acnes Leo FN, read-out: Concentration required for 50% inhibition (IC50)
[9] = Streptococcus pyogenes Leo EC, read-out: Concentration required for 50% inhibition (IC50)
[10] = Staphylococcus aureus Leo CC178B
[11] = LEOJA2, Bacteroides fragilis Leo JA2, read-out: Concentration required for 50% inhibition (IC50)
[12] = LEOCJ145, Staph. aureus Leo CJ145, read-out: Concentration required for 50% inhibition (IC50)
[13] = Streptococcus sp. Leo EG2, read-out: Concentration required for 50% inhibition (IC50)
[14] = read-out: IC50 after 1st transfer
[15] = read-out: IC50 after 2nd transfer
[16] = read-out: IC50 after 3rd transfer
[17] = read-out: IC50 after 4th transfer
[18] = read-out: IC50 after 5th transfer
[19] = read-out: IC50 after 6th transfer
[20] = Streptococcus pyogenes, read-out: Concentration required for 50% inhibition (IC50), Streptococcus pyogenes Leo EC
[21] = Bacteroides fragilis, LEOJA2, read-out: Concentration required for 50% inhibition (IC50), Bacteroides fragilis Leo JA2
[22] = Streptococcus, read-out: Concentration required for 50% inhibition (IC50), Streptococcus sp. Leo EG2

CC(C)=CCCC(C(=O)O)C1=C2C[C@@H](O)[C@H]3[C@@]4(C)CC[C@@H](O)[C@@H](C)[C@@H]4CC[C@]3(C)[C@@]2(C)C[C@@H]1Sc1ccc(Br)cc1 (stereo partly drawn) [Example 2, 3α,11α-dihydroxy-16β--(4'-bromophenylthio)fusida-13(17),24-dien-21-oic acid sodium salt]
IC50 (Corynebact. acnes Leo FN; [8]): 0.63 µg/mL | IC50 [1, 9]: 0.2 µg/mL | IC50 [2]: 10 µg/mL | IC50 [3, 10]: 6.3 µg/mL | IC50 [4, 11]: 13 µg/mL | IC50 (Staph. aureus Leo CJ145; [12]): 100 µg/mL | IC50 [5, 13]: 0.5 µg/mL

CC(C)CCCC(C(=O)O)C1=C2C[C@@H](O)[C@H]3[C@@]4(C)CC[C@@H](O)[C@@H](C)[C@@H]4CC[C@]3(C)[C@@]2(C)C[C@@H]1Sc1ccccc1 (stereo partly drawn) [Example 8, 3α,11α-Dihydroxy-16β-phenylthiofusida-13(17)-en-21-oic acid, sodium salt]
IC50 (Corynebact. acnes Leo FN; [8]): 1.6 µg/mL | IC50 [1, 9]: 0.5 µg/mL | IC50 [2]: 2.5 µg/mL | IC50 [3, 10]: 2 µg/mL | IC50 [4, 11]: > 100 µg/mL | IC50 [5, 13]: 0.5 µg/mL

CCS[C@H]1C[C@@]2(C)C(=C1C(CCC=C(C)C)C(=O)O)C[C@@H](O)[C@H]1[C@@]3(C)CC[C@@H](O)[C@@H](C)[C@@H]3CC[C@@]12C (stereo partly drawn) [Example 11, 3α,11α-dihydroxy-16β-ethylthiofusida-13(17),24-dien-21-oic acid sodium salt]
IC50 (Corynebact. acnes Leo FN; read-out: Concentration required for 50% inhibition (IC50)): 2 µg/mL | IC50 [6, 14]: 2.3 µg/mL | IC50 [6, 15]: 3.8 µg/mL | IC50 [6, 16]: 4.3 µg/mL | IC50 [6, 17]: 4.2 µg/mL | IC50 [6, 18]: 4 µg/mL | IC50 [6, 19]: 4 µg/mL | IC50 ([6]; read-out: IC50 before transfer): 2.7 µg/mL | Change in sensitivity after transfers ([6]; fusidic acid resistant strain): hardly shows any change in sensitivity | IC50 [7, 14]: 2 µg/mL | IC50 [7, 15]: 7.4 µg/mL | IC50 [7, 16]: 7.4 µg/mL | IC50 [7, 17]: 13.5 µg/mL | IC50 [7, 18]: 10 µg/mL | IC50 [7, 19]: 32 µg/mL | IC50 ([7]; read-out: IC50 before transfer): 2.7 µg/mL | Decrease of sensitivity after the 6th transfer ([7]; fusidic acid sensitive strain): 12 fold | IC50 ([1]; Streptococcus pyogenes, read-out: Concentration required for 50% inhibition (IC50)): 1.6 µg/mL | IC50 [2]: 3.2 µg/mL | IC50 ([3]; Staphylococcus aureus): 2.7 µg/mL | IC50 ([4]; Bacteroides fragilis, LEOJA2, read-out: Concentration required for 50% inhibition (IC50)): 2 µg/mL | IC50 (Staph. aureus Leo CJ145; LEOCJ145, read-out: Concentration required for 50% inhibition (IC50)): 3.2 µg/mL | IC50 ([5]; Streptococcus, read-out: Concentration required for 50% inhibition (IC50)): 1.6 µg/mL

CC(C)=CCCC(C(=O)O)C1=C2C[C@@H](O)[C@H]3[C@@]4(C)CC[C@@H](O)[C@@H](C)[C@@H]4CC[C@]3(C)[C@@]2(C)C[C@@H]1SC(C)(C)C (stereo partly shown) [Example 13]
IC50 (Corynebact. acnes Leo FN; [8]): 0.5 µg/mL (≈ 0.914 µM) | IC50 [1, 9]: 0.63 µg/mL (≈ 1.15 µM) | IC50 [2]: 1.6 µg/mL (≈ 2.93 µM) | IC50 [3, 10]: 1.6 µg/mL (≈ 2.93 µM) | IC50 [4, 11]: 2 µg/mL (≈ 3.66 µM) | IC50 (Staph. aureus Leo CJ145; [12]): 7.9 µg/mL (≈ 14.4 µM) | IC50 [5, 13]: 1.6 µg/mL (≈ 2.93 µM)

C=CCS[C@H]1C[C@@]2(C)C(=C1C(CCC=C(C)C)C(=O)O)C[C@@H](O)[C@H]1[C@@]3(C)CC[C@@H](O)[C@@H](C)[C@@H]3CC[C@@]12C (stereo partly shown) [Example 14]
IC50 (Corynebact. acnes Leo FN; [8]): 1.6 µg/mL (≈ 3.01 µM) | IC50 [1, 9]: 0.32 µg/mL (≈ 0.603 µM) | IC50 [2]: 1.6 µg/mL (≈ 3.01 µM) | IC50 [3, 10]: 1.6 µg/mL (≈ 3.01 µM) | IC50 [4, 11]: 4 µg/mL (≈ 7.54 µM) | IC50 (Staph. aureus Leo CJ145; [12]): 5 µg/mL (≈ 9.42 µM) | IC50 [5, 13]: 1.6 µg/mL (≈ 3.01 µM)

CC(C)=CCCC(C(=O)O)C1=C2C[C@@H](O)[C@H]3[C@@]4(C)CC[C@@H](O)[C@@H](C)[C@@H]4CC[C@]3(C)[C@@]2(C)C[C@@H]1SCc1ccco1 (stereo partly shown) [Example 23]
IC50 (Corynebact. acnes Leo FN; [8]): 0.79 µg/mL (≈ 1.38 µM) | IC50 [1, 9]: 0.63 µg/mL (≈ 1.1 µM) | IC50 [2]: 1.6 µg/mL (≈ 2.8 µM) | IC50 [3, 10]: 1.6 µg/mL (≈ 2.8 µM) | IC50 [4, 11]: 16 µg/mL (≈ 28 µM) | IC50 (Staph. aureus Leo CJ145; [12]): 7.9 µg/mL (≈ 13.8 µM) | IC50 [5, 13]: 1.6 µg/mL (≈ 2.8 µM)

CC(C)CCCC(C(=O)O)C1=C2C[C@@H](O)[C@H]3[C@@]4(C)CC[C@@H](O)[C@@H](C)[C@@H]4CC[C@]3(C)[C@@]2(C)C[C@@H]1SC(C)C (stereo partly drawn) [Example 26, 3α,11α-Dihydroxy-16β-isopropylthiofusida-13(17)-en-21-oic acid sodium salt]
IC50 (Corynebact. acnes Leo FN; read-out: Concentration required for 50% inhibition (IC50), Corynebact. acnes Leo FN): 0.5 µg/mL | IC50 [1, 20]: 0.5 µg/mL | IC50 [2]: 1.6 µg/mL | IC50 ([3]; Staphylococcus aureus): 1.6 µg/mL | IC50 [4, 21]: 20 µg/mL | IC50 [5, 22]: 0.5 µg/mL

CC(C)=CCCC(C(=O)O)C1=C2C[C@@H](O)[C@H]3[C@@]4(C)CC[C@@H](O)[C@@H](C)[C@@H]4CC[C@]3(C)[C@@]2(C)C[C@@H]1SC(C)C (stereo partly drawn) [Example 27, 3α,11α-Dihydroxy-16β-isopropylthiofusida-13(17), 24-dien-21-oic acid]
Concentration required for 50% inhibition (IC50) (Corynebact. acnes Leo FN; Corynebact. acnes Leo FN): 0.63 µg/mL | IC50 [1, 20]: 0.63 µg/mL (≈ 1.18 µM) | IC50 [2]: 1.6 µg/mL (≈ 3 µM) | IC50 ([3]; Staphylococcus aureus): 1.6 µg/mL (≈ 3 µM) | IC50 [4, 21]: 10 µg/mL (≈ 18.8 µM) | IC50 (Staph. aureus Leo CJ145; LEOCJ145, read-out: Concentration required for 50% inhibition (IC50), Staph. aureus Leo CJ145): 4 µg/mL (≈ 7.51 µM) | IC50 [5, 22]: 1 µg/mL (≈ 1.88 µM)

CC(C)=CCCC(C(=O)O)C1=C2C[C@@H](O)[C@H]3[C@@]4(C)CC[C@@H](O)[C@@H](C)[C@@H]4CC[C@]3(C)[C@@]2(C)C[C@@H]1SC(C)C (stereo partly drawn) [Example 31C, 3α,11α-dihydroxy-16β-isopropylthiofusida-13(17),24-dien-21-oic acid]
Concentration required for 50% inhibition (IC50) (Corynebact. acnes Leo FN; Corynebact. acnes Leo FN): 0.63 µg/mL | Concentration required for 50% inhibition (IC50) ([1]; Streptococcus pyogenes Leo EC): 0.5 µg/mL | Concentration required for 50% inhibition (IC50) [3, 10]: 1.6 µg/mL | Concentration required for 50% inhibition (IC50) ([4]; Bacteroides fragilis Leo JA2): 6.3 µg/mL | Concentration required for 50% inhibition (IC50) (Staph. aureus Leo CJ145; Staph. aureus Leo CJ145): 4.0 µg/mL | Concentration required for 50% inhibition (IC50) ([5]; Streptococcus sp. Leo EG2): 0.63 µg/mL

CC(C)=CCCC(C(=O)O)C1=C2C[C@@H](O)[C@H]3[C@@]4(C)CC[C@@H](O)[C@@H](C)[C@@H]4CC[C@]3(C)[C@@]2(C)C[C@@H]1SC(C)C (stereo partly drawn) [Example 31D, 3α,11α-dihydroxy-16β-isopropylthiofusida-13(17),24-dien-21-oic acid]
Concentration required for 50% inhibition (IC50) (Corynebact. acnes Leo FN; Corynebact. acnes Leo FN): 1.6 µg/mL | Concentration required for 50% inhibition (IC50) ([1]; Streptococcus pyogenes Leo EC): 0.63 µg/mL | Concentration required for 50% inhibition (IC50) [3, 10]: 1.6 µg/mL | Concentration required for 50% inhibition (IC50) (Staph. aureus Leo CJ145; Staph. aureus Leo CJ145): 5.0 µg/mL | Concentration required for 50% inhibition (IC50) ([5]; Streptococcus sp. Leo EG2): 0.79 µg/mL

CC(=O)O[C@H]1C[C@@]2(C)[C@@H](C[C@@H](O)[C@H]3[C@@]4(C)CC[C@@H](O)[C@@H](C)[C@@H]4CC[C@@]32C)/C1=C(\CCCC(C)C)C(=O)O [sodium salt of dihydro-fusidic acid, reference compound]
Viable counts after 6 1/2 hours (Staphylococcus aureus; 37° C, inoculum 5.2 × 10^5): 3.1 × 10^5 organisms per ml | Viable counts after 2 hours (Staphylococcus aureus; 37° C, inoculum 5.2 × 10^5): 4.1 × 10^5 organisms per ml | Viable counts after 24 hours (Staphylococcus aureus; 37° C, inoculum 5.2 × 10^5): 6.3 × 10^6 organisms per ml | Resistance of surviving organisms to the compound / development of resistance (Staphylococcus aureus; 96 hours): resistant to dihydro-fusidic acid

— US4100276A, “Fusidic acid derivatives” (priority 1975, dated 1978)
